Publication PMC7291367, “Insightful Backbone Modifications Preventing Proteolytic Degradation of Neurotensin Analogs Improve NTS1-Induced Protective Hypothermia” (Frontiers in Chemistry, 2020)
Entries after “also recorded” stand apart in the source; their conditions may differ. Where two headings read alike, the source gives them in different places. Numbered stars: 1 amine (or outer) side, 2 acyl side, 3 side chain; on linkers, the order of the positions; unused ones are H or OH. Square brackets hold non-standard residues; d marks the D form. Peptide text beside a SMILES is read from it. X1 = NCCCC[C@H](N)CN([C@@H](CCCCN)C(=O)[*:2])[*:1]; Ala(SiMe3) = C[Si](C)(C)C[C@H](N)C(=O)O; X2 = C[Si]1(C)CC(C(=O)[*:2])N([*:1])C1

Columns and labels:
[1] = Plasma stability assay (UPLC/MS); format: in vitro ADME; settings: 37°C; for half-life at 0.156 mM: rat; for Plasma stability (Half-life): rat plasma, 0.156 mM
Description: Rat plasma was obtained from blood by keeping the translucent phase after centrifugation at 15,000 g over 5 min. Plasma stability assay was carried out by incubating each compound at different incubation times in rat plasma at a final concentration of 0.156 mM. […] Then, 70 μl of a solution containing 10% trichloroacetic acid (TCA) and 0.5% nicotinamine, an internal standard, was added to stop the degradation by proteases. After centrifugation at 15,000 g for 30 min, supernatant was filtered through 0.22-μm filter and analyzed by UPLC/MS (Water H Class Acquity UPLC, mounted with Acquity UPLC BEH C18 column, 1.7 μm, 2.1 × 50 mm and paired to a SQ Detector 2). Compounds 1, 2, and 5 were analyzed using the mass or UV spectrum. Quantification was done by determining the area under the curve (AUC) ratio of each compound over AUC of nicotinamine for each incubation time. Data were plotted into GraphPad Prism 8 and the half-life of each compound was calculated using one-phase decay fit and represented the mean ± SEM of minimum three separate experiments.

hNTS2 = hNTS2 (Homo sapiens, UniProt O95665); assay: Competitive radioligand binding assay, 125I-[Tyr3]-NT displacement, 1321N1 cell membranes; settings: for fold decrease in NTS2 binding affinity: compared to NT(8-13); for NTS1/NTS2 selectivity: ratio of Ki hNTS1 to Ki hNTS2
Chain of hNTS2 (O95665 whole entry): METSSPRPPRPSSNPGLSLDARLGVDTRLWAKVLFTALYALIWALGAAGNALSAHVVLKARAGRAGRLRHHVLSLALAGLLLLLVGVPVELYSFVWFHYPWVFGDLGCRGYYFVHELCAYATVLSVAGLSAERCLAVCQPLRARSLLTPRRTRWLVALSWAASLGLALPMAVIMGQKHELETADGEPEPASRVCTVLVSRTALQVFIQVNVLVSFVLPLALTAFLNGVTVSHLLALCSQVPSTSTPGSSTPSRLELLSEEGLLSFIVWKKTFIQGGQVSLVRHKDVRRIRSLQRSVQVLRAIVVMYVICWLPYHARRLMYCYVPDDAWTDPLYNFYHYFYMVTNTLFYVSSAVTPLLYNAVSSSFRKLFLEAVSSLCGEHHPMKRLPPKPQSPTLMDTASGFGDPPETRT
Description: (§1) All media and additives are from Wisent (St-Bruno, QC). […] After 1 h of incubation at room temperature, the binding reaction mixture was transferred in polyethylenimine-coated 96-well-filter plates (Millipore, Billerica, MA). Reaction was terminated by filtration, and plates were washed three times with 200 μl of ice-cold binding buffer. […] Data were plotted using GraphPad Prism 8 using the One-site—Fit log (IC50) and represent the mean ± SEM of at least three separate experiments performed in triplicate.

hNTS1 = hNTS1 (Homo sapiens, UniProt P30989); assay: Competitive radioligand binding assay, 125I-[Tyr3]-NT displacement, CHO-K1 cell membranes; settings: for fold decrease in NTS1 binding affinity: compared to NT(8-13)
Chain of hNTS1 (P30989 whole entry): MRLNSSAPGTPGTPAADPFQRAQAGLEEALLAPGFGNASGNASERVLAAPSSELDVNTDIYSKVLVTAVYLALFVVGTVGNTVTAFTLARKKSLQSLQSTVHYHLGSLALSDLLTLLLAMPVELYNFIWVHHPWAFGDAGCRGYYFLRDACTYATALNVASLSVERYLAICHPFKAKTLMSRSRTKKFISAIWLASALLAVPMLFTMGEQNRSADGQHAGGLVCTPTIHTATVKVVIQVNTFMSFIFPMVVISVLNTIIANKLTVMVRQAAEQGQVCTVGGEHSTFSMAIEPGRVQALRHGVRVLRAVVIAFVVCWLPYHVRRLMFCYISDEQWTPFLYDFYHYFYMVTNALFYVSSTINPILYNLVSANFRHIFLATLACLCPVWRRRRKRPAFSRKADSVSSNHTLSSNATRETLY
Description: as §1

Sprague-Dawley rats = assay: Body temperature measurement after intrathecal injection; format: in vivo; settings: rat; for effect on body temperature / temperature drop: 30 μg/kg i.t.; for effect on body temperature: compared to the saline-treated group; for Hypothermia ΔTemp: 30 μg/kg, i.t., change in body temperature from baseline at 60 min; for temperature drop: for up to 60 min
Text: The experimental procedures in this study were approved by the Animal Care Committee of the Université de Sherbrooke (protocol n°035-18B) and were in accordance with policies and directives of the Canadian Council on Animal Care. Adult male Sprague-Dawley rats, weighing 175–225 g (Charles River laboratories, St-Constant, Québec, Canada), were maintained on a 12-h light/dark cycle with free access to food and water and were housed two per cage on Aspen shavings in a quiet room.
Rats were lightly anesthetized with isoflurane/oxygen (Baxter corporation, Mississauga, ON, Canada; 2 L/min) flow and 25 μl of each compound were injected intrathecally with a 27-G 1/2 needle (BD PrecisionGlide, USA) into the subarachnoid space between vertebrae L5 and L6. Analogs 1–14 were diluted in physiological saline at 5 mg/ml, whereas compounds 15 and 16 were diluted in DMSO. For body temperature measurement, the injected solution of these both compounds contained 6% DMSO at final concentration (30 μg/kg).
Three consecutive days prior to testing, animals were individually acclimatized to manipulations and to a thermistor probe 5 min per day. The day of the test, experiments were always performed in a quiet room and between 8:00 and 12:00 PM. to reduce any variation related to the circadian rhythm. Body temperature was measured using a thermistor probe inserted into the rectum of adult Sprague-Dawley rats. Temperatures were recorded immediately before (baseline) and each 10 min for up to 60 min following intrathecal administration of saline, vehicle (6% DMSO) or NT analogs at 30 μg/kg. Changes in body temperature (Δ body temp) from baseline were determined for each animal. Data are expressed as mean ± SEM of 5 to 20 animals per condition.
Data are expressed as mean ± standard errors of the mean (SEM). All graphs and statistical analysis were performed using GraphPad Prism 8 (GraphPad software, La Jolla, CA, USA). A two-way ANOVA followed by Bonferroni's multiple comparisons test was used to determine significant differences between drug- and vehicle-treated rats at different timepoints post-injection.

[2] = mean ± SEM, at least three experiments, Cheng-Prusoff from IC50, read-out: Binding, Ki hNTS2

Molecule	half-life at 0.156 mM ([1]; plasma, incubation up to 24 h)	Ki (hNTS2)	NTS1/NTS2 selectivity (hNTS2)	Ki (hNTS1)	effect on body temperature (Sprague-Dawley rats)	Hypothermia ΔTemp (Sprague-Dawley rats)	also measured
CC[C@H](C)[C@H](NC(=O)[C@H](Cc1ccc(O)cc1)NC(=O)C1C[Si](C)(C)CN1C(=O)[C@H](CCCCN)NC[C@@H](N)CCCCN)C(=O)N[C@@H](C[Si](C)(C)C)C(=O)O (stereo partly drawn) [Compound 8, H-LysΨ[CH2NH]Lys-Sip-Tyr-Ile-TMSAla-OH]	> 20 h	–	–	–	–	–	–
CC[C@H](C)[C@H](NC(=O)[C@H](Cc1ccc(O)cc1)NC(=O)C1C[Si](C)(C)CN1C(=O)[C@H](CCCCN)NC[C@@H](N)CCCCN)C(=O)N[C@@H](CC(C)C)C(=O)O (stereo partly drawn) [Compound 6, H-Lysψ[CH2NH]Lys-Sip-Tyr-Ile-Leu-OH]	22 ± 2 h	130 ± 30 nM	2.3	300 ± 50 nM	slight decrease in core body temperature; also recorded: hypothermic response	−2.2 ± 0.3 °C	fold decrease in NTS2 binding affinity (hNTS2): ~50 fold; fold decrease in NTS1 binding affinity (hNTS1): 200 fold
CC[C@H](C)[C@H](NC(=O)[C@H](Cc1ccc(O)cc1)NC(=O)[C@@H]1CCCN1C(=O)[C@H](CCCCN)NC(=O)[C@@H](N)CCCCN)C(=O)N[C@@H](CC(C)C)C(=O)O [Compound 1, H-Lys-Lys-Pro-Tyr-Ile-Leu-OH]	–	1.1 ± 0.2 nM	–	–	not effective in reducing the body temperature; also recorded: not effective to induce drop in body temperature	0.27 ±0.2 °C	half-life at 0.156 mM ([1]; short incubation times): 0.0267 ± 0.005 h
CC[C@H](C)[C@H](NC(=O)[C@H](Cc1ccc(O)cc1)NC(=O)[C@@H]1CCCN1C(=O)[C@H](CCCCN)NC[C@@H](N)CCCCN)C(=O)N[C@@H](CC(C)C)C(=O)O [Compound 2, H-LysΨ[CH2NH]Lys-Pro-Tyr-Ile-Leu-OH] (H-[X1]PYIL-OH)	–	–	6	2 ± 0.8 nM	–	–	Ki (hNTS2; [2]): 0.31 ± 0.08 nM; Plasma stability (Half-life) ([1]; short incubation times): 0.14 ± 0.0333 h; half-life at 0.156 mM ([1]; plasma, short incubation times): < 0.167 h
CC[C@H](C)[C@H](NC(=O)[C@H](Cc1ccc(O)cc1)NC(=O)[C@@H]1CCCN1C(=O)[C@H](CCCCN)NC[C@@H](N)CCCCN)C(=O)N[C@@H](C[Si](C)(C)C)C(=O)O [Compound 4, H-Lysψ[CH2NH]Lys-Pro-Tyr-Ile-TMSAla-OH] (H-[X1]PYI[Ala(SiMe3)]-OH)	2 ± 0.2 h	0.55 ± 0.1 nM	4.5	2.5 ± 0.2 nM	long-lasting hypothermia	−2.0 ± 0.10 °C	fold decrease (loss) of affinity at NTS1 (hNTS1; compared to 3): 140 fold; temperature drop (Sprague-Dawley rats): more than 2 °C
CC[C@H](C)[C@H](NC(=O)[C@@H](Cc1c[nH]c2ccccc12)NC(=O)[C@@H]1CCCN1C(=O)[C@H](CCCCN)NC[C@@H](N)CCCCN)C(=O)N[C@@H](C[Si](C)(C)C)C(=O)O [Compound 14, H-Lysψ[CH2NH]Lys-Pro-D-Trp-Ile-TMSAla-OH] (H-[X1]P[dW]I[Ala(SiMe3)]-OH)	> 20 h	3.5 ± 0.6 nM	16	55 ± 3 nM	long-lasting hypothermia	−1.8 ± 0.2 °C	fold increase in binding to NTS1 (hNTS1; compared to 13 (addition of reduced amine bond)): 65 fold; temperature drop (Sprague-Dawley rats): more than 2 °C
CC[C@H](C)[C@H](NC(=O)[C@H](Cc1ccc(O)cc1)NC(=O)[C@@H]1CCCN1C(=O)[C@H](CCCNC(=N)N)NC(=O)[C@@H](N)CCCNC(=N)N)C(=O)N[C@@H](CC(C)C)C(=O)O [NT(8-13), H-Arg-Arg-Pro-Tyr-Ile-Leu-OH, reference compound]	–	–	–	–	–	–	half-life at 0.156 mM ([1]; short incubation times): 0.0167 ± 0.00167 h
CC[C@H](C)[C@H](NC(=O)[C@H](CCCCN)NC(=O)[C@@H]1CCCN1C(=O)[C@H](CCCCN)NC(=O)[C@@H](N)CCCCN)C(=O)N[C@@H](C[Si](C)(C)C)C(=O)O [Compound 11, H-Lys-Lys-Pro-Lys-Ile-TMSAla-OH] (H-KKPKI[Ala(SiMe3)]-OH)	–	76 ± 20 nM	9.3	710 ± 100 nM	did not induce hypothermia; also recorded: did not cause drop in body temperature	0.04 ± 0.2 °C	fold increase in affinity toward NTS2 (hNTS2; compared to 9): 4 fold; fold increase in affinity toward NTS1 (hNTS1; compared to 9): 10 fold
H-KKPKIL-OH [Compound 9, H-Lys-Lys-Pro-Lys-Ile-Leu-OH]	–	–	25	–	did not induce hypothermia; also recorded: did not cause drop in body temperature	0.32 ± 0.2 °C	fold decrease in NTS2 binding affinity (hNTS2): > 110 fold; Ki (hNTS2; [2]): 310 ± 100 nM; fold decrease in NTS1 binding affinity (hNTS1): more than 5,000 fold
CC[C@H](C)[C@H](NC(=O)[C@@H](Cc1c[nH]c2ccccc12)NC(=O)[C@@H]1CCCN1C(=O)[C@H](CCCCN)NC(=O)[C@@H](N)CCCCN)C(=O)N[C@@H](C[Si](C)(C)C)C(=O)O [Compound 13, H-Lys-Lys-Pro-D-Trp-Ile-TMSAla-OH] (H-KKP[dW]I[Ala(SiMe3)]-OH)	–	8.5 ± 2 nM	423	–	–	–	selectivity toward NTS2 (hNTS2; NTS2 over NTS1, text): > 420 fold; Plasma stability (Half-life) ([1]; short incubation times): 0.167 ± 0.033 h; half-life at 0.156 mM ([1]; plasma, short incubation times): < 0.167 h
CC[C@H](C)[C@H](NC(=O)[C@H](Cc1ccc(O)cc1)NC(=O)C1C[Si](C)(C)CN1C(=O)[C@H](CCCCN)NC(=O)[C@@H](N)CCCCN)C(=O)N[C@@H](CC(C)C)C(=O)O (stereo partly drawn) [Compound 5, H-Lys-Lys-Sip-Tyr-Ile-Leu-OH] (H-KK[X2]YIL-OH)	–	–	–	–	not effective in reducing the body temperature; also recorded: not effective to induce drop in body temperature	−0.07 ± 0.2 °C	–
CC[C@H](C)[C@H](NC(=O)[C@H](Cc1ccc(O)cc1)NC(=O)C1C[Si](C)(C)CN1C(=O)[C@H](CCCCN)NC(=O)[C@@H](N)CCCCN)C(=O)N[C@@H](C[Si](C)(C)C)C(=O)O (stereo partly drawn) [Compound 7, H-Lys-Lys-Sip-Tyr-Ile-TMSAla-OH] (H-KK[X2]YI[Ala(SiMe3)]-OH)	–	16 ± 4 nM	3.4	55 ± 5 nM	not effective in reducing the body temperature; also recorded: not effective to induce drop in body temperature	−0.30 ± 0.6 °C	fold decrease in NTS2 binding affinity (hNTS2): 6 fold; fold decrease in NTS1 binding affinity (hNTS1): 35 fold
CC[C@H](C)[C@H](NC(=O)[C@H](CCCCN)NC(=O)[C@@H]1CCCN1C(=O)[C@H](CCCCN)NC[C@@H](N)CCCCN)C(=O)N[C@@H](CC(C)C)C(=O)O [Compound 10, H-LysΨ[CH2NH]Lys-Pro-Lys-Ile-Leu-OH] (H-[X1]PKIL-OH)	5 ± 0.2 h	–	–	–	–	–	–
